T/C data for 25 molecules are collected here from PubChem BioAssay AID330 (DTP/NCI, 2004).

The assay has as its system P388 leukemia ip, CD2F1 mice, survival T/C. Description: NCI In Vivo Anticancer Drug Screen. Data for tumor model P388 Leukemia (intraperitoneal) in CD2F1 (CDF1) mice. The settings on record: endpoint: median survival time, higher = longer survival. A digest of the protocol: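 Mice carrying the transplanted tumor received test compound or vehicle. Survival was recorded in each group, and the value is the treated-group measurement divided by that of the vehicle-treated control group.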

[1] abbreviates: dose: 50.0 mg/kg/injection, schedule: Q01DX005 (ip), vehicle: saline with Tween-80.
Setting [2] is: dose: 100.0 mg/kg/injection, schedule: Q01DX005 (ip), vehicle: saline with Tween-80.
Where [3] appears, read: dose: 50.0 mg/kg/injection, schedule: Q01DX009 (ip), vehicle: saline with Tween-80.
Where [4] appears, read: dose: 100.0 mg/kg/injection, schedule: Q01DX009 (ip), vehicle: saline with Tween-80.
Setting [5] is: dose: 200.0 mg/kg/injection, schedule: Q01DX009 (ip), vehicle: saline with Tween-80.
The mark [6] stands for this setting: dose: 400.0 mg/kg/injection, schedule: Q01DX009 (ip), vehicle: saline with Tween-80.
Where [7] appears, read: dose: 50.0 mg/kg/injection, schedule: Q01DX009 (ip), vehicle: saline.
The mark [8] stands for this setting: dose: 100.0 mg/kg/injection, schedule: Q01DX009 (ip), vehicle: saline.
Setting [9] is: dose: 200.0 mg/kg/injection, schedule: Q01DX009 (ip), vehicle: saline.
The mark [10] stands for this setting: dose: 25.0 mg/kg/injection, schedule: Q01DX009 (ip), vehicle: Klucel (hydroxypropylcellulose) (HPC).
Setting [11] is: dose: 50.0 mg/kg/injection, schedule: Q01DX009 (ip), vehicle: Klucel (hydroxypropylcellulose) (HPC).
The mark [12] stands for this setting: dose: 60.0 mg/kg/injection, schedule: Q01DX005 (ip), vehicle: saline with Tween-80.
The mark [13] stands for this setting: dose: 120.0 mg/kg/injection, schedule: Q01DX005 (ip), vehicle: saline with Tween-80.
Setting [14] is: dose: 240.0 mg/kg/injection, schedule: Q01DX005 (ip), vehicle: saline with Tween-80.
[15] abbreviates: dose: 50.0 mg/kg/injection, schedule: Q01DX005 (ip), vehicle: Klucel (hydroxypropylcellulose) (HPC).
Where [16] appears, read: dose: 100.0 mg/kg/injection, schedule: Q01DX005 (ip), vehicle: Klucel (hydroxypropylcellulose) (HPC).
Setting [17] is: dose: 200.0 mg/kg/injection, schedule: Q01DX005 (ip), vehicle: Klucel (hydroxypropylcellulose) (HPC).

Several values for one entry are separate records, joined by “and”; a condition that tells them apart may be missing. Equal values may be shown once. Toxic doses and inconclusive results are not listed.

Regarding `C=C[C@H](c1ccccc1O)c1cc(OC)c(OC)cc1OC`, the T/C (dose: 31.75 mg/kg/injection, schedule: Q01DX005 (ip), vehicle: Klucel (hydroxypropylcellulose) (HPC)) was 104 % of control; the T/C (dose: 63.5 mg/kg/injection, schedule: Q01DX005 (ip), vehicle: Klucel (hydroxypropylcellulose) (HPC)) is 103 % of control; the T/C (dose: 127.0 mg/kg/injection, schedule: Q01DX005 (ip), vehicle: Klucel (hydroxypropylcellulose) (HPC)) is 106 % of control; the T/C (dose: 254.0 mg/kg/injection, schedule: Q01DX005 (ip), vehicle: Klucel (hydroxypropylcellulose) (HPC)) was 102 % of control.

As for `c1ccc(CCC(Cc2cccnc2)c2ccccn2)nc1` (stereo not drawn), the T/C runs as follows: (dose: 100.0 mg/kg/injection, schedule: Q04DX002 (ip), vehicle: saline) 95 % of control; (dose: 200.0 mg/kg/injection, schedule: Q04DX002 (ip), vehicle: saline) 104 % of control.

Take `O=c1c2ccccc2nc(-c2ccc(Cl)cc2)n1O`: the T/C is 92 % of control under setting [1] and 88 % of control under setting [2].

For the molecule `CC1CC2(c3ccccc3)C(=O)NC(=O)N=C2O1` (stereo not drawn), the T/C (dose: 100.0 mg/kg/injection, schedule: Q04DX002 (ip), vehicle: Klucel (hydroxypropylcellulose) (HPC)) is 105 % of control; the T/C (dose: 200.0 mg/kg/injection, schedule: Q04DX002 (ip), vehicle: Klucel (hydroxypropylcellulose) (HPC)) is 109 % of control; the T/C (dose: 400.0 mg/kg/injection, schedule: Q04DX002 (ip), vehicle: Klucel (hydroxypropylcellulose) (HPC)) was 105 % of control.

Consider `CCOC(=O)/C(C#N)=C1/CCCN1C`, for which the T/C is 107 % of control (dose: 100.0 mg/kg/injection, schedule: Q04DX003 (ip), vehicle: Klucel (hydroxypropylcellulose) (HPC)) and 109 % of control (dose: 200.0 mg/kg/injection, schedule: Q04DX003 (ip), vehicle: Klucel (hydroxypropylcellulose) (HPC)).

In the case of `CCCCNC(=O)CCC`, the T/C is, setting by setting: under setting [3], 88 % of control; under setting [4], 94 % of control; under setting [5], 95 % of control; under setting [6], 97 % of control.

As for `COc1ccc2c(CP(=O)(O)O)cc(=O)oc2c1`, the T/C runs as follows: (dose: 100.0 mg/kg/injection, schedule: Q01DX001 (ip), vehicle: suspension in saline) 99 % of control; (dose: 200.0 mg/kg/injection, schedule: Q01DX001 (ip), vehicle: suspension in saline) 100 % of control; (dose: 400.0 mg/kg/injection, schedule: Q01DX001 (ip), vehicle: suspension in saline) 87 % of control.

As to `O=C(CNNC(=O)OCc1ccccc1)OCc1ccccc1`, the T/C reads like this: (dose: 12.5 mg/kg/injection, schedule: Q01DX009 (ip), vehicle: other) 95 % of control; (dose: 25.0 mg/kg/injection, schedule: Q01DX009 (ip), vehicle: other) 99 % of control; (dose: 50.0 mg/kg/injection, schedule: Q01DX009 (ip), vehicle: other) 93 % of control; (dose: 100.0 mg/kg/injection, schedule: Q01DX009 (ip), vehicle: other) 96 % of control.

`CN(C)CCN(C(=O)C(O)(c1ccccc1)c1ccccc1)c1ccccc1`: the T/C reads like this: under setting [7], 100 % of control; under setting [8], 100 % of control; under setting [9], 107 % of control.

With `C[C@]12CCC[C@H](O)[C@H]1O2`, the T/C is, setting by setting: (dose: 100.0 mg/kg/injection, schedule: Q04DX003 (ip), vehicle: saline) 104 % of control; (dose: 200.0 mg/kg/injection, schedule: Q04DX003 (ip), vehicle: saline) 102 % of control; (dose: 400.0 mg/kg/injection, schedule: Q04DX003 (ip), vehicle: saline) 102 % of control.

For the molecule `NNC(=O)c1ccccc1Cl`, the T/C (dose: 6.25 mg/kg/injection, schedule: Q01DX009 (ip), vehicle: Klucel (hydroxypropylcellulose) (HPC)) is 97 % of control; the T/C (dose: 6.25 mg/kg/injection, schedule: Q01DX009 (ip), vehicle: saline) was 100 % of control; the T/C (dose: 12.5 mg/kg/injection, schedule: Q01DX009 (ip), vehicle: Klucel (hydroxypropylcellulose) (HPC)) is 96 % of control; the T/C (dose: 12.5 mg/kg/injection, schedule: Q01DX009 (ip), vehicle: saline) was 100 % of control; the T/C under setting [10] is 100 % of control.

On to `COc1ccc(C(=O)CCC2(C)OCCO2)cc1OC`, for which the T/C was 101 % of control (dose: 60.0 mg/kg/injection, schedule: Q01DX005 (ip), vehicle: Klucel (hydroxypropylcellulose) (HPC)); 108 % of control (dose: 120.0 mg/kg/injection, schedule: Q01DX005 (ip), vehicle: Klucel (hydroxypropylcellulose) (HPC)); 106 % of control (dose: 240.0 mg/kg/injection, schedule: Q01DX005 (ip), vehicle: Klucel (hydroxypropylcellulose) (HPC)).

`COc1cc(/C=C2/CCC/C(=C\c3ccc(OCC(O)COc4ccc(C(C)(C)c5ccc(OCC6CO6)cc5)cc4)c(OC)c3)C2=O)ccc1OCC(O)COc1ccc(C(C)(C)c2ccc(OCC3CO3)cc2)cc1` (stereo not drawn): the T/C is 96 % of control under setting [11]; 97 % of control (dose: 100.0 mg/kg/injection, schedule: Q01DX009 (ip), vehicle: Klucel (hydroxypropylcellulose) (HPC)); 95 % of control (dose: 200.0 mg/kg/injection, schedule: Q01DX009 (ip), vehicle: Klucel (hydroxypropylcellulose) (HPC)).

For `O=c1cc[nH]c2ccccc12`, the T/C under setting [7] was 96 % of control, the T/C under setting [8] was 92 % of control and the T/C under setting [9] is 97 % of control.

Regarding `c1ccc(OCc2cn[nH]n2)cc1`, the T/C runs as follows: under setting [12], 100 % of control; under setting [13], 103 % of control; under setting [14], 100 % of control.

Turning to `N#Cc1c(O)c(-c2ccccc2)c(=O)n2c1[nH]c1ccccc12`, the T/C under setting [15] is 101 % of control, the T/C under setting [16] is 104 % of control and the T/C under setting [17] was 113 % of control.

`COC(=O)C(CS[C@@H]1CCCC[C@@H]1O)NC(C)=O` (stereo partly drawn): the T/C is 100 % of control (dose: 50.0 mg/kg/injection, schedule: Q01DX005 (ip), vehicle: suspension in saline); 99 % of control (dose: 100.0 mg/kg/injection, schedule: Q01DX005 (ip), vehicle: suspension in saline); 95 % of control (dose: 200.0 mg/kg/injection, schedule: Q01DX005 (ip), vehicle: suspension in saline).

For `Cc1ccc(C2C=CC(C#N)=CN2Cc2ccccc2)cc1` (stereo not drawn), the T/C was 99 % of control under setting [15], 104 % of control under setting [16] and 101 % of control under setting [17].

Regarding `CCn1c(=O)c2[nH]c(C(F)(F)F)nc2n(CC)c1=O`, the T/C reads like this: under setting [10], 86 % of control; under setting [11], 99 % of control.

`CC(=NCCCCN=C(C)c1cc(C)cc(Br)c1O)c1cc(C)cc(Br)c1O.[Co]`: the T/C (dose: 6.25 mg/kg/injection, schedule: Q01DX005 (ip), vehicle: Klucel (hydroxypropylcellulose) (HPC)) is 99 % of control and 104 % of control; the T/C (dose: 12.5 mg/kg/injection, schedule: Q01DX005 (ip), vehicle: Klucel (hydroxypropylcellulose) (HPC)) is 100 % of control and 106 % of control; the T/C (dose: 25.0 mg/kg/injection, schedule: Q01DX005 (ip), vehicle: Klucel (hydroxypropylcellulose) (HPC)) is 101 % of control and 109 % of control and 283 % of control; the T/C under setting [15] is 98 % of control and 109 % of control and 283 % of control; the T/C under setting [16] is 106 % of control and 97 % of control; the T/C under setting [17] is 97 % of control.

As to `CCOc1cccc2c1NC(C)=C(C(=O)c1ccccc1)S2`, the T/C under setting [12] is 100 % of control, the T/C under setting [13] was 95 % of control and the T/C under setting [14] was 91 % of control.

For the molecule `COc1ccc(C(=O)O)c(N)c1`, the T/C under setting [4] was 90 % of control, the T/C under setting [5] was 95 % of control and the T/C under setting [6] is 109 % of control.

As to `O=C(/N=C1\N=Nc2nc(CC(=O)c3cccc4ccccc34)c(O)n21)Nc1ccc(Cl)cc1`, the T/C was 96 % of control under setting [1]; 103 % of control under setting [2]; 104 % of control (dose: 200.0 mg/kg/injection, schedule: Q01DX005 (ip), vehicle: saline with Tween-80).

On to `NC(=O)c1ccccc1NC(=O)CCCC(=O)O`, for which the T/C reads like this: under setting [7], 98 % of control; under setting [8], 108 % of control; under setting [9], 97 % of control.

`Clc1ccc(N=C(c2ccncc2)c2cc(Cl)ccc2Cl)cc1`: the T/C runs as follows: under setting [3], 109 % of control; under setting [4], 92 % of control.
